32 molecules from patent publication US12209081B2 (Katholieke Universiteit Leuven, priority 2020, dated 2025) can be followed below.

As usually defined, the IC50 is the midpoint of a concentration-inhibition curve. A higher IC50 goes with a need for much substance.

Sequence of mouse TRPM3α2 (mTRPM3) ion channel (J9SQF3 other isoform, or with tags, fused parts or gaps): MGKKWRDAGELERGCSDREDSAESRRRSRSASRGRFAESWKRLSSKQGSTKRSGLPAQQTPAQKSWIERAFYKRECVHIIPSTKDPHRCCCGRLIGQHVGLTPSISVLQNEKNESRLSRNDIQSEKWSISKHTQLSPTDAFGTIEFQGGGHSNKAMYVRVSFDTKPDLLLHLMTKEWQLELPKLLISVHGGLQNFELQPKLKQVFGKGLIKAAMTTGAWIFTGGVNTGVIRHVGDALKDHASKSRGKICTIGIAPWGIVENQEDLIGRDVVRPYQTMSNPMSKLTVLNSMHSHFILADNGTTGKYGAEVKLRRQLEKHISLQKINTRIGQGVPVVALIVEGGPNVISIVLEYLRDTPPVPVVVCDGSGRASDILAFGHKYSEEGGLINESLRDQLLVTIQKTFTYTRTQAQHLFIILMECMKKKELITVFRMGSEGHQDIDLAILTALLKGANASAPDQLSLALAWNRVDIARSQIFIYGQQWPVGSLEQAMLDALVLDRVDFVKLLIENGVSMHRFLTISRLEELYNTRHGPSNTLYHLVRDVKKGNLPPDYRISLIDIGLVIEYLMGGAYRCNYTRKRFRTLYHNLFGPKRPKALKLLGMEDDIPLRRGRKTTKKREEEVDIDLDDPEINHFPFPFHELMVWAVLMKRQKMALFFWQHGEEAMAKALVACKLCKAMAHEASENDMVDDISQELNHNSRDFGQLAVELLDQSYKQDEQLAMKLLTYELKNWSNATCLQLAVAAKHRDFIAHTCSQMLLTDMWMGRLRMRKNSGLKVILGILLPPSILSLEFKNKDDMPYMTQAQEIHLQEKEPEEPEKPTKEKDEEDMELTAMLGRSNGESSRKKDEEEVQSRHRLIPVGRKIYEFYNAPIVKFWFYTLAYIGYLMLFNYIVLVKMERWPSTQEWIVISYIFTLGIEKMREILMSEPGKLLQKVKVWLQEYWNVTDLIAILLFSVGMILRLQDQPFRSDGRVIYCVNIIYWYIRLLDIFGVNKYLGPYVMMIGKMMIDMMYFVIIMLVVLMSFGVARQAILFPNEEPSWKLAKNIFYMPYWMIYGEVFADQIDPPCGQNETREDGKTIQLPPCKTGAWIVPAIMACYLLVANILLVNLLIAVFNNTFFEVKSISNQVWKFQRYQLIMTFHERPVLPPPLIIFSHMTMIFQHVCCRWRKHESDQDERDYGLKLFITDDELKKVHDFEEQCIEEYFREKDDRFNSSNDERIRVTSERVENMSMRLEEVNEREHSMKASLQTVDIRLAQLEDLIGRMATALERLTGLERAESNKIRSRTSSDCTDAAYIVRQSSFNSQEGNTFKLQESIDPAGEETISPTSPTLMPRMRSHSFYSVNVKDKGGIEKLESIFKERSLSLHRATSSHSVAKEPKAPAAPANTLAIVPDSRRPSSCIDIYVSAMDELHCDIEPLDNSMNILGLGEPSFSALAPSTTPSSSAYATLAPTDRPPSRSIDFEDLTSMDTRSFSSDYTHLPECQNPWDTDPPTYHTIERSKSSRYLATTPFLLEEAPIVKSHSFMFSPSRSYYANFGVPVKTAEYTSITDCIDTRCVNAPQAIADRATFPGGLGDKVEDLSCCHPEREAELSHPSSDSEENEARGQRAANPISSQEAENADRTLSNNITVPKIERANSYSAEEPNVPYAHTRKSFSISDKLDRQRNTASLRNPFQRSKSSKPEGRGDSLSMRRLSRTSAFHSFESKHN

The test concerns the target mouse TRPM3α2 (mTRPM3) ion channel (Mus musculus (Mouse), UniProt J9SQF3). Put plainly: TRPM3 ion channel driven Ca2+ uptake, Fluo-4 AM assay, mTRPM3alpha2 overexpressing flip-in HEK293 cells stimulated with pregnenolone sulfate. The settings on record: PS 50 μM, cpds 300-399. It is filed as cell-based. The method in brief: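 Flip-in HEK293 cells loaded with Fluo-4 AM were added to plates holding compound plus 50 μM pregnenolone sulfate in Ca2+-containing Krebs buffer. Fluorescence (ex 485/em 535 nm) read directly after cell addition; % inhibition relative to PS-stimulated vehicle and positive-control inhibitor.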
Take `Cc1oc2ccc(OCc3cccnc3C(F)F)cc2c1C(=O)NC1(CO)COC1` [compound 341, 5-((2-(difluoromethyl)pyridin-3-yl)methoxy)-N-(3-(hydroxymethyl)oxetan-3-yl)-2-methylbenzofuran-3-carboxamide]: the IC50 was under 1 µM.
The molecule `Cc1oc2ccc(OCc3cccnc3C(F)F)cc2c1C(=O)NC1(CO)CCOCC1` [compound 343, 5-((2-(difluoromethyl)pyridin-3-yl)methoxy)-N-(4-(hydroxymethyl)tetrahydro-2H-pyran-4-yl)-2-methylbenzofuran-3-carboxamide] gave an IC50 of under 1 µM.
Consider `Cc1oc2ccc(OCc3cccnc3N(C)C)cc2c1C(=O)NC1(CO)CCOCC1` [compound 344, 5-((2-(dimethylamino)pyridin-3-yl)methoxy)-N-(4-(hydroxymethyl)tetrahydro-2H-pyran-4-yl)-2-methylbenzofuran-3-carboxamide], for which the IC50 was under 1 µM.
`Cc1nc(C)c(COc2ccc3oc(C)c(C(=O)NC4(CO)CCOCC4)c3c2)s1` [compound 345, 5-((2,4-dimethylthiazol-5-yl)methoxy)-N-(4-(hydroxymethyl)tetrahydro-2H-pyran-4-yl)-2-methylbenzofuran-3-carboxamide]: the IC50 is under 1 µM.
Under `Cc1oc2ccc(OCc3cccnc3N)cc2c1C(=O)NC1(CO)CCOCC1` [compound 346, 5-((2-aminopyridin-3-yl)methoxy)-N-(4-(hydroxymethyl)tetrahydro-2H-pyran-4-yl)-2-methylbenzofuran-3-carboxamide] stands under 1 µM.
For the molecule `Cc1oc2ccc(OCc3ncccc3F)cc2c1C(=O)NC1(CO)CCOCC1` [compound 352, 5-((3-fluoropyridin-2-yl)methoxy)-N-(4-(hydroxymethyl)tetrahydro-2H-pyran-4-yl)-2-methylbenzofuran-3-carboxamide], the IC50 is under 1 µM.
In the case of `Cc1oc2ccc(OCc3c(F)cnn3C)cc2c1C(=O)NC1(CO)CCOCC1` [compound 357, 5-((4-fluoro-1-methyl-1H-pyrazol-5-yl)methoxy)-N-(4-(hydroxymethyl)tetrahydro-2H-pyran-4-yl)-2-methylbenzofuran-3-carboxamide], the IC50 is under 1 µM.
Take `Cc1oc2ccc(OCc3ccc(OCCO)cn3)cc2c1C(=O)NC1(CO)CCOCC1` [compound 358, 5-((5-(2-hydroxyethoxy)pyridin-2-yl)methoxy)-N-(4-(hydroxymethyl)tetrahydro-2H-pyran-4-yl) -2-methylbenzofuran-3-carboxamide]: the IC50 was over 20 µM.
The molecule `Cc1oc2ccc(OCc3ccc(F)cn3)cc2c1C(=O)NC1(CO)CCOCC1` [compound 359, 5-((5-fluoropyridin-2-yl)methoxy)-N-(4-(hydroxymethyl)tetrahydro-2H-pyran-4-yl)-2-methylbenzofuran-3-carboxamide] had an IC50 of under 1 µM.
Then `Cc1ncsc1COc1cc2c(C(=O)NC3(CO)CC3)c(C)oc2cc1F` [compound 361, 6-fluoro-N-(1-(hydroxymethyl)cyclopropyl)-2-methyl-5-((4-methylthiazol-5-yl)methoxy)benzofuran-3-carboxamide], with under 1 µM.
The molecule `Cc1ncsc1COc1cc2c(C(=O)NC3(CO)COC3)c(C)oc2cc1F` [compound 362, 6-fluoro-N-(3-(hydroxymethyl)oxetan-3-yl)-2-methyl-5-((4-methylthiazol-5-yl)methoxy)benzofuran-3-carboxamide] yielded an IC50 of under 1 µM.
The molecule `Cc1oc2cc(F)c(OCc3cccnc3O)cc2c1C(=O)NC1(CO)CCOCC1` [compound 363, 6-fluoro-N-(4-(hydroxymethyl)tetrahydro-2H-pyran-4-yl)-2-methyl-5-((2-oxo-1,2-dihydropyridin-3-yl)methoxy)benzofuran-3-carboxamide] yielded an IC50 of under 1 µM.
Under `COc1ncccc1COc1cc2c(C(=O)NC3(CO)CCOCC3)c(C)oc2cc1F` [compound 364, 6-fluoro-N-(4-(hydroxymethyl)tetrahydro-2H-pyran-4-yl)-5-((2-methoxypyridin-3-yl)methoxy)-2-methylbenzofuran-3-carboxamide] stands under 1 µM; under `Cc1ncsc1COc1cc(F)c2oc(C)c(C(=O)NC3(CO)COC3)c2c1` [compound 367, 7-fluoro-N-(3-(hydroxymethyl)oxetan-3-yl)-2-methyl-5-((4-methylthiazol-5-yl)methoxy)benzofuran-3-carboxamide], under 1 µM.
Under `Cc1ncc(COc2ccc3oc(C)c(C(=O)NCC4(C#N)CC4)c3c2)s1` [compound 370, N-((1-cyanocyclopropyl)methyl)-2-methyl-5-((2-methylthiazol-5-yl)methoxy)benzofuran-3-carboxamide] stands under 1 µM; under `Cc1ncsc1COc1ccc2oc(C)c(C(=O)NCC3(C#N)CC3)c2c1` [compound 371, N-((1-cyanocyclopropyl)methyl)-2-methyl-5-((4-methylthiazol-5-yl)methoxy)benzofuran-3-carboxamide], under 1 µM; under `Cc1ncc(COc2ccc3oc(C)c(C(=O)NCC4(F)CC4)c3c2)s1` [compound 372, N-((1-fluorocyclopropyl)methyl)-2-methyl-5-((2-methylthiazol-5-yl)methoxy)benzofuran-3-carboxamide], under 1 µM.
Molecule `Cc1ncsc1COc1ccc2oc(C)c(C(=O)NCC3(F)CC3)c2c1` [compound 373, N-((1-fluorocyclopropyl)methyl)-2-methyl-5-((4-methylthiazol-5-yl)methoxy)benzofuran-3-carboxamide] came in with an IC50 of under 1 µM.
Under `Cc1ncsc1COc1ccc2oc(C)c(C(=O)NCc3cc[nH]n3)c2c1` [compound 374, N-((1H-pyrazol-3-yl)methyl)-2-methyl-5-((4-methylthiazol-5-yl)methoxy)benzofuran-3-carboxamide] stands under 1 µM.
For the molecule `Cc1ncc(COc2ccc3oc(C)c(C(=O)N[C@H](C(N)=O)[C@@H](C)O)c3c2)o1` [compound 375, N-((2S,3R)-1-amino-3-hydroxy-1-oxobutan-2-yl)-2-methyl-5-((2-methyloxazol-5-yl)methoxy)benzofuran-3-carboxamide], the IC50 was under 1 µM.
Then `Cc1ncccc1COc1ccc2oc(C)c(C(=O)N[C@H](C(N)=O)[C@@H](C)O)c2c1` [compound 376, N-((2S,3R)-1-amino-3-hydroxy-1-oxobutan-2-yl)-2-methyl-5-((2-methylpyridin-3-yl)methoxy)benzofuran-3-carboxamide], with under 1 µM.
Under `Cc1ncc(COc2ccc3oc(C)c(C(=O)N[C@H](C(N)=O)[C@@H](C)O)c3c2)s1` [compound 377, N-((2S,3R)-1-amino-3-hydroxy-1-oxobutan-2-yl)-2-methyl-5-((2-methylthiazol-5-yl)methoxy)benzofuran-3-carboxamide] stands under 1 µM; under `Cc1ncsc1COc1ccc2oc(C)c(C(=O)N[C@H](C(N)=O)[C@@H](C)O)c2c1` [compound 378, N-((2S,3R)-1-amino-3-hydroxy-1-oxobutan-2-yl)-2-methyl-5-((4-methylthiazol-5-yl)methoxy)benzofuran-3-carboxamide], under 1 µM.
On to `Cc1ccc(COc2ccc3oc(C)c(C(=O)N[C@H](C(N)=O)[C@@H](C)O)c3c2)cn1` [compound 380, N-((2S,3R)-1-amino-3-hydroxy-1-oxobutan-2-yl)-2-methyl-5-((6-methylpyridin-3-yl)methoxy)benzofuran-3-carboxamide], for which the IC50 was under 1 µM.
Then `Cc1nc(C)c(COc2ccc3oc(C)c(C(=O)N[C@H](C(N)=O)[C@@H](C)O)c3c2)s1` [compound 382, N-((2S,3R)-1-amino-3-hydroxy-1-oxobutan-2-yl)-5-((2,4-dimethylthiazol-5-yl)methoxy)-2-methylbenzofuran-3-carboxamide], with under 1 µM; and `Cc1oc2ccc(OCc3c(F)cnn3C)cc2c1C(=O)N[C@H](C(N)=O)[C@@H](C)O` [compound 383, N-((2S,3R)-1-amino-3-hydroxy-1-oxobutan-2-yl)-5-((4-fluoro-1-methyl-1H-pyrazol-5-yl)methoxy)-2-methylbenzofuran-3-carboxamide], with under 1 µM.
Then `Cc1ncc(COc2ccc3oc(C)c(C(=O)NCC4(F)COC4)c3c2)s1` [compound 384, N-((3-fluorooxetan-3-yl)methyl)-2-methyl-5-((2-methylthiazol-5-yl)methoxy)benzofuran-3-carboxamide], with under 1 µM; and `Cc1ncsc1COc1ccc2oc(C)c(C(=O)NCC3(F)COC3)c2c1` [compound 385, N-((3-fluorooxetan-3-yl)methyl)-2-methyl-5-((4-methylthiazol-5-yl)methoxy)benzofuran-3-carboxamide], with under 1 µM; and `Cc1oc2ccc(OCc3cccnc3C(F)(F)F)cc2c1C(=O)N[C@@H]1C(=O)NC[C@H]1O` [compound 390, N-((3S,4R)-4-hydroxy-2-oxopyrrolidin-3-yl)-2-methyl-5-((2-(trifluoromethyl)pyridin-3-yl)methoxy)benzofuran-3-carboxamide], with under 1 µM.
`Cc1ncc(COc2ccc3oc(C)c(C(=O)N[C@@H]4C(=O)NC[C@H]4O)c3c2)s1` [compound 391, N-((3S,4R)-4-hydroxy-2-oxopyrrolidin-3-yl)-2-methyl-5-((2-methylthiazol-5-yl)methoxy)benzofuran-3-carboxamide]: the IC50 was under 1 µM.
`Cc1ncsc1COc1ccc2oc(C)c(C(=O)N[C@@H]3C(=O)NC[C@H]3O)c2c1` [compound 392, N-((3S,4R)-4-hydroxy-2-oxopyrrolidin-3-yl)-2-methyl-5-((4-methylthiazol-5-yl)methoxy)benzofuran-3-carboxamide] returned an IC50 of under 1 µM.
Under `Cc1ncc(COc2ccc3oc(C)c(C(=O)NCC4(F)CCOCC4)c3c2)s1` [compound 393, N-((4-fluorotetrahydro-2H-pyran-4-yl)methyl)-2-methyl-5-((2-methylthiazol-5-yl)methoxy)benzofuran-3-carboxamide] stands under 1 µM.
